The conditions of data set [1]: literature values (footnotes a Gosztola et al., c Lee et al.), cited from earlier work; for E^−1/2: first reduction potential; for E^2−1/2: second reduction potential.
The nature of data set [2]: Steady-state electronic absorption and fluorescence spectroscopy. The format is physicochemical. The settings on record: for E(S1): determined from the average energy of the absorption and emission maxima; for λmax: UV-vis absorption in toluene; for ε: extinction coefficient at λmax; for ε / λem: toluene; for λem: fluorescence emission maximum; for φF: fluorescence quantum yield. As for the experimental part:
Steady-state electronic absorption spectra were recorded on a Shimadzu 1601 UV/Vis spectrometer with a 2 mm quartz cuvette. Fluorescence measurements were performed using a PTI Quanta-Master 1 single photon counting spectrofluorimeter in a right angle configuration with a 1 cm quartz cuvette.
The intensity of the S0→>S1 transition increases with the size of the aromatic core, while the energy decreases. The fluorescence spectrum of each chromophore is shown in FIG. 4b and summarized in Table 4 along with that of compounds 1, 3, 5, 7, and 9. A similar trend with the emission maxima moving to longer wavelengths as the size of the aromatic core increases was observed. The electronic absorption and fluorescence properties of all the alkylated chromophores are very similar to those of the parent compounds. No observable trend is apparent for the slight shifts in λmax; however, with the exception of 2, all alkylated compounds have slightly lower extinction coefficients than their parent compounds. The fluorescence emission maxima of the alkylated compounds (Table 4) are similar to those of the parent compounds as reported in the literature. See Hydlovic et al., Phtochem. Photobiol. A., 112: 197-203 (1998); Licchelli et al., Chem. Eur. J., 8: 5161-5169 (2002); Weil et al., Chem. Eur. J., 8: 4742-4750 (2002); and Sadrai et al., J. Phys. Chem., 96: 7988-7996 (1992).

The conditions of data set [3]: literature values (footnote a Hayes et al.); cited from earlier work.
For data set [4] the following is noted: cited from earlier work; for ε: extinction coefficient at λmax; for ε / λem: literature values (footnotes a, b); for λem: fluorescence emission maximum; for φF: fluorescence quantum yield, literature values (footnotes d-h); for λmax: literature values (footnotes a Gosztola et al., b Holtrup et al.).
Data set [5] in a line: Electrochemistry (redox potentials). The format is physicochemical. The following applies: for E^+1/2: oxidation potential; for E^+1/2 / E^−1/2 / E^2−1/2: dichloromethane, 0.1 M TBAPF6; for E^+1/2 / E^−1/2: Fc/Fc+ (0.46 V vs. SCE) internal standard; for E^−1/2: first reduction potential; for E^2−1/2: second reduction potential; for Reduction potential more negative than that of parent compound: shift versus unsubstituted parent. As for the experimental part:
Electrochemical measurements were performed using a CH Instruments Model 622 electrochemical workstation. Measurements for compounds 4, 6, 8, and 10 were performed in dichloromethane containing 0.1 M tetrabutylammonium hexafluorophosphate (TBAPF6) electrolyte. Measurements for 2 were performed in benzonitrile with the same electrolyte. A 1.0 mm diameter platinum disk electrode, platinum wire electrode, and […] reference electrode were employed. The ferrocene/ferrocenium redox couple (Fc/Fc^+, 0.46 V vs. SCE) (see Connelly et al., Chem. Rev., 96: 877-910 (1996)) was used as an internal standard. TBAPF6 was recrystallized twice from ethyl acetate prior to use.
Alkylation (e.g., substitution of the phenethyl groups) ortho to the imide nitrogen atoms appears to render the present compounds somewhat more difficult to reduce, but easier to oxidize (Table 3). The reduction potentials of the disubstituted compounds (2, 4, and 6) are approximately 130 mV more negative than those of their parent compounds. Correspondingly, the oxidation potential of the disubstituted 6 is 40 mV less positive than that of […]. Tetrasubstituted 8 and 10 have reduction potentials that are more negative by ˜200 mV than their unsubstituted analogs. These shifts in redox potentials reasonably arise from the electron-donating nature of the alkylating (e.g., phenethyl) groups. The oxidation and reduction potentials of all alkylated molecules shift in the same direction by nearly the same amount, such that the corresponding HOMO-LUMO energy gap remains the same, as is reflected in their electronic absorption and emission spectra described below.

The nature of data set [6]: Solubility in toluene. The settings on record: for solubility: organic solvent or mixture. Format: physicochemical. As for the experimental part: As used herein, a compound can be considered soluble in a solvent when at least 0.1 mg of the compound can be dissolved in 1 mL of the solvent. Examples of common organic solvents include petroleum ethers; acetonitrile; aromatic hydrocarbons such as benzene, toluene, xylene, and mesitylene; ketones such as acetone, and methyl ethyl ketone; ethers such as tetrahydrofuran, dioxane, bis(2-methoxyethyl)ether, diethyl ether, di-isopropyl ether, and t-butyl methyl ether; alcohols such as methanol, ethanol, butanol, and isopropyl alcohol; aliphatic hydrocarbons such as hexanes; esters such as methyl acetate, ethyl acetate, methyl formate, ethyl formate, isopropyl acetate, and butyl acetate; amides such as dimethylformamide and dimethylacetamide; sulfoxides such as dimethylsulfoxide; halogenated aliphatic and aromatic hydrocarbons such as dichloromethane, chloroform, ethylene chloride, chlorobenzene, dichlorobenzene, and trichlorobenzene; and cyclic solvents such as cyclopentanone, cyclohexanone, and 2-methypyrrolidone. In various embodiments, the present compounds can have good solubility in solvents that are aromatic hydrocarbons such as benzene, toluene, xylene, and mesitylene.
Table 2 below compares the solubilities of several compounds according to the present teachings with their unsubstituted counterparts in toluene.

By solubility is commonly meant how much of the substance goes into solution per volume.

Converted amounts (≈) assume the structure as drawn. Where two headings read alike, the source gives them in different places.

With `CCCCCCCCN1C(=O)c2ccc3c4c(ccc(c24)C1=O)C(=O)N(CCCCCCCC)C3=O` [Compound 3, N,N′-bis(n-octyl)-naphthalene-1,8:4,5-bis(dicarboximide)], in data set [1], the “E^−1/2” value is −0.48^a and the “E^2−1/2” value was −0.99^a. The “E(S1)” value in data set [2] turned out to be 3.15 eV. In data set [3], the τD is <20^a ps. Moreover, in data set [4], the ε was 14500 M⁻¹ cm⁻¹, the λem is on record as 407^a nm, the φF is on record as 0.0018^e and the λmax was 382 nm.
With “N,N′-bis(2-ethylhexyl)-terrylene-3,4:11,12-bis(dicarboximide) [Compound 9]”, the “E^−1/2” value in data set [1] is listed as −0.63^c. For the same compound, in data set [2], the “E(S1)” value came to 1.88 eV. Moreover, the E^+1/2 in data set [5] was determined as 1.12 V. Also, in data set [6], the Solubility in toluene was less than 1 mg/mL. In addition, in data set [4], the ε was 93000 M⁻¹ cm⁻¹, the λem is 673^b nm, the φF is listed as 0.95^h and the λmax is reported as 650 nm.
Consider `CCCCCCCCN1C(=O)c2c(CCc3ccccc3)cc3c4cc(CCc5ccccc5)c5c6c(c(CCc7ccccc7)cc(c7cc(CCc8ccccc8)c(c2c37)C1=O)c64)C(=O)N(CCCCCCCC)C5=O` [Compound 8, N,N′-bis(n-octyl)-2,5,8,11-tetrakis(phenethyl)perylene-3, 4:9,10-bis(dicarboximide)], for which, in data set [2], the λmax amounted to 525 nm, the “E(S1)” value was 2.35 eV, the ε amounted to 58000 M⁻¹ cm⁻¹ and the λem is given as 533^ nm. In data set [2], this compound had a φF of 0.99. In data set [5], the “E^−1/2” value is −0.75^, the E^+1/2 was found to be 1.63 V, the “E^2−1/2” value is given as −0.93^ and the “Reduction potential more negative than that of parent compound” value is approximately 200 mV. Further, the solubility in data set [6] was determined as 2000 µg/mL (≈ 1940 µM).
Take `CCCCCCCCN1C(=O)c2cc(CCc3ccccc3)c3c4c(c(CCc5ccccc5)cc(c24)C1=O)C(=O)N(CCCCCCCC)C3=O` [Compound 4, N,N′-bis(n-octyl)-2,7-bis(phenethyl)naphthalene-1,8:4,5-bis(dicarboximide)]: in data set [2], the λmax worked out at 390 nm, the “E(S1)” value came to 3.09 eV, the ε came out at 14000 M⁻¹ cm⁻¹ and the λem is 415^ nm. In data set [2], this compound yielded a φF of 0.0005. Moreover, in data set [5], the “E^−1/2” value is −0.61^, the “E^2−1/2” value is listed as −1.15^ and the “Reduction potential more negative than that of parent compound” value is “approximately 130 mV”.
With “N,N′-bis(n-octyl)-perylene-3, 4:9,10-bis(dicarboximide) [Compound 7]”, in data set [1], the “E^−1/2” value was −0.50^c and the “E^2−1/2” value was −0.73^c. For the same compound, the “E(S1)” value in data set [2] was found to be 2.34 eV. In data set [5], this compound showed an E^+1/2 of 1.67 V. Also, in data set [6] (toluene), the Solubility in toluene is reported as less than 1 mg/mL. In data set [4], the ε was 80000 M⁻¹ cm⁻¹, the λem is recorded as 535^a nm, the φF is recorded as 0.99^g and the λmax is reported as 526 nm.
With `CCCCC(CC)CN1C(=O)c2c(CCc3ccccc3)cc3c4ccc5c6cc(CCc7ccccc7)c7c8c(c(CCc9ccccc9)cc(c9ccc(c%10cc(CCc%11ccccc%11)c(c2c3%10)C1=O)c4c59)c86)C(=O)N(CC(CC)CCCC)C7=O` (stereo not drawn) [Compound 10, N,N′-bis(2-ethylhexyl)-2,5,10,13-tetrakis(phenethyl)terrylene-3, 4:11,12-bis(dicarboximide)], in data set [2], the λmax was determined as 649 nm, the “E(S1)” value amounted to 1.90 eV, the ε is 80000 M⁻¹ cm⁻¹ and the λem was 661^ nm. Further, the φF in data set [2] stood at 0.95. Further, in data set [5], the “E^−1/2” value is reported as −0.83^, the E^+1/2 was found to be 1.1 V and the “Reduction potential more negative than that of parent compound” value is listed as approximately 200 mV. Moreover, in data set [6], the solubility was determined as 3000 µg/mL (≈ 2600 µM).
With `CCCCC(CC)CN1C(=O)c2ccc3c4cccc5cccc(c6ccc(c2c36)C1=O)c54` (stereo not drawn) [Compound 5, N-(2′-ethylhexyl)-perylene-3,4-dicarboximide], in data set [1], the “E^−1/2” value is reported as −1.00^c and the “E^2−1/2” value is reported as −1.49^c. For the same compound, in data set [2], the “E(S1)” value stood at 2.38 eV. In addition, the τD in data set [3] is on record as 3500 ± 100^a ps. The same compound displayed an E^+1/2 in data set [5] of 1.41 V. Moreover, the solubility in data set [6] was found to be 2000 µg/mL (≈ 4610 µM). In data set [4], the ε is 29970 M⁻¹ cm⁻¹, the λem is recorded as 539^a nm, the φF is given as 0.98^f and the λmax is reported as 505 nm.
Take `CCCCCCCCN1C(=O)c2cccc3cccc(c23)C1=O` [Compound 1, N-(n-octyl)-naphthalene-1,8-dicarboximide]: in data set [1], the “E^−1/2” value was −1.40^a. The “E(S1)” value in data set [2] is listed as 3.38 eV. Moreover, in data set [3], the τD is recorded as <50^a ps. Further, in data set [4], the ε is 10647 M⁻¹ cm⁻¹, the λem is recorded as 386^a nm, the φF was 0.25^d and the λmax is listed as 350 nm.

Source of the values: patent US20110079773A1, “Selectively Functionalized Rylene Imides and Diimides” (priority 2009, published 2011).
